Drawing on patent US10266526B2, “Substituted 1,2,3-triazoles as SMYD inhibitors for treating cancer” (EPIZYME, INC., priority 2014, dated 2019), this text covers IC50 for 31 compounds.

Counter-ions that a name gives are not always drawn.

SMYD3, sequence (Q9H7B4 whole entry): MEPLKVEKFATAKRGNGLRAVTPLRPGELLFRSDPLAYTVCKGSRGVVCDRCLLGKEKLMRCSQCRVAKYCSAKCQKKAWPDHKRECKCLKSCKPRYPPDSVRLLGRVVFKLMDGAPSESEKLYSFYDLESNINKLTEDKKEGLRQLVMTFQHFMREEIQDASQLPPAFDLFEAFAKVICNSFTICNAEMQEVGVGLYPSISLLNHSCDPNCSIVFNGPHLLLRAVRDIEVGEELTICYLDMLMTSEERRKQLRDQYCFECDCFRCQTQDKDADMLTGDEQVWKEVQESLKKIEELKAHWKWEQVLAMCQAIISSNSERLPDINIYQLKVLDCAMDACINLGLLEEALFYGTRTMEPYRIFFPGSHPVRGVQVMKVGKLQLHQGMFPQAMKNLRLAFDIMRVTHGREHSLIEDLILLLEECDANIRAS

The first test has as its target SMYD3 (Homo sapiens (Human), UniProt Q9H7B4). Description: SMYD3 biochemical assay (SMYD3 enzyme assay on MEKK2 protein substrate, 3H-SAM scintillation proximity assay). The note with it: Table 1A; average of n = 1 to n = 50; read-out: SMYD3 Biochem IC50. A digest of the protocol:
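Detection used scintillation proximity beads to capture ³H-methylated GST-MEKK2 after quench with 100 uM final cold SAM. The reaction was started by SAM/MEKK2 addition after a 30 min RT compound–enzyme preincubation. Enzyme was tag-free full-length human SMYD3 from E. coli, in buffer of 25 mM Tris-Cl pH 8.0, 1 mM TCEP, 0.005% BSG, 0.005% Tween 20.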
On the technique in general: In a scintillation proximity assay essentially only radioactivity close to the scintillant gives light.
In the case of `NCCC(=O)N[C@H]1CC[C@H](NC(=O)c2nc3ccncc3s2)CC1` [compound 532, N-((1r,4r)-4-(3-aminopropanamido)cyclohexyl)thiazolo[5,4-c]pyridine-2-carboxamide], the IC50 is above 50 µM. On the same count and under the same terms, the same measure for `N[C@H]1CC[C@H](C(=O)N2CCC(NC(=O)c3nnc[nH]3)CC2)CC1` [compound 555, N-(1-((1r,4r)-4-aminocyclohexane-1-carbonyl)piperidin-4-yl)-4H-1,2,4-triazole-3-carboxamide]: above 50 µM; for `NCCCC(=O)N[C@H]1CC[C@H](NC(=O)c2nnc[nH]2)CC1` [compound 540, N-((1r,4r)-4-(4-aminobutanamido)cyclohexyl)-4H-1,2,4-triazole-3-carboxamide]: above 50 µM.

With `CCc1cnc(C(=O)N[C@H]2CC[C@H](NC(=O)CCN)CC2)s1` [compound 553, N-((1r,4r)-4-(3-aminopropanamido)cyclohexyl)-5-ethylthiazole-2-carboxamide], the IC50 was 25.6 µM. In the case of `CCc1cnc(C(=O)N[C@H]2CC[C@H](N)CC2)s1` [compound 554, N-((1r,4r)-4-aminocyclohexyl)-5-ethylthiazole-2-carboxamide], the IC50 was above 50 µM.

With `N[C@H]1CC[C@H](NC(=O)c2nc3ccncc3s2)CC1` [compound 533, N-((1r,4r)-4-aminocyclohexyl)thiazolo[5,4-c]pyridine-2-carboxamide], the IC50 was above 50 µM.

The test is the same for the next values; noted with them: read-out: SMYD3 Biochem IC50.
For `O=C1CC2CN(C(=O)CC3CCNCC3)CCC2N1` (stereo not shown) [compound 461, 5-(2-(piperidin-4-yl)acetyl)octahydro-2H-pyrrolo[3,2-c]pyridin-2-one], the concentration for half-maximal inhibition (IC50) was above 100 µM. With `CC(NC(=O)c1cc2cc(Cl)ccc2[nH]1)C1CCN(C(=O)[C@H](C)N)CC1` (stereo partly drawn) [compound 229, N-(1-(1-(L-alanyl)piperidin-4-yl)ethyl)-5-chloro-1H-indole-2-carboxamide], the IC50 was determined as 77.9 µM. The same measure, in the same setting: under `CC(NC(=O)c1cccc(N)n1)C1CCN(C(=O)[C@H](C)N)CC1` (stereo partly drawn) [compound 418, N-(1-(1-(L-alanyl)piperidin-4-yl)ethyl)-6-aminopicolinamide] stands above 100 µM. Same read-out and setting: under `Cc1cc(C)c(C(=O)N[C@H]2CC[C@H](N)CC2)c(=O)[nH]1` [compound 324, N-((1r,4r)-4-aminocyclohexyl)-4,6-dimethyl-2-oxo-1,2-dihydropyridine-3-carboxamide] stands above 100 µM; under `CC(NC(=O)c1ccc2c(c1)C(=O)C(=O)N2)C1CCN(C(=O)[C@H](C)N)CC1` (stereo partly drawn) [compound 488, N-(1-(1-(L-alanyl)piperidin-4-yl)ethyl)-2,3-dioxoindoline-5-carboxamide], 14.1 µM; under `Cc1ccncc1C(=O)N[C@H]1CC[C@H](NC(=O)CCN)CC1` [compound 381, N-((1r,4r)-4-(3-aminopropanamido)cyclohexyl)-4-methylnicotinamide], above 100 µM.

For `N[C@H]1CC[C@H](NC(=O)c2cc3c(cc2Cl)NC(=O)C3)CC1` [compound 492, N-((1r,4r)-4-aminocyclohexyl)-6-chloro-2-oxoindoline-5-carboxamide], the IC50 stood at 1.59 µM. On the same count and under the same terms, the same measure for `NCCC(=O)N[C@H]1CC[C@H](NC(=O)Cc2cc(F)cc(F)c2)CC1` [compound 443, 3-amino-N-((1r,4r)-4-(2-(3,5-difluorophenyl)acetamido)cyclohexyl)propanamide]: above 100 µM; for `NC1CCC(NC(=O)[C@H]2Cc3ccccc3CN2)CC1` (stereo partly drawn) [compound 459, (3R)-N-(4-aminocyclohexyl)-1,2,3,4-tetrahydroisoquinoline-3-carboxamide]: above 100 µM.

`COc1ccc2cc(C(=O)N[C@H]3CC[C@H](NC(=O)CCN)CC3)ccc2c1` [compound 326, N-((1r,4r)-4-(3-aminopropanamido)cyclohexyl)-6-methoxy-2-naphthamide]: the IC50 is 28 µM. The same measure, in the same setting: under `Cc1cncc(C(=O)N[C@H]2CC[C@H](N)CC2)c1` [compound 345, N-((1r,4r)-4-aminocyclohexyl)-5-methylnicotinamide] stands 50.7 µM; under `CN(C(=O)CN)C1CCC(NC(=O)c2ccc3c(c2)CC(=O)N3)CC1` (stereo not shown) [compound 214, N-(4-(2-amino-N-methylacetamido)cyclohexyl)-2-oxoindoline-5-carboxamide], 1.25 µM. Same read-out and setting: the same measure for `NCCC(=O)N[C@H]1CC[C@H](NC(=O)C2C[C@@H]3C=C[C@H]2C3)CC1` (stereo partly drawn) [compound 416, (1R,4R)-N-((1r,4R)-4-(3-aminopropanamido)cyclohexyl)bicyclo[2.2.1]hept-5-ene-2-carboxamide]: above 100 µM; for `N[C@H]1CC[C@H](NC(=O)Cc2cccc(C(F)(F)F)c2)CC1` [compound 457, N-((1r,4r)-4-aminocyclohexyl)-2-(3-(trifluoromethyl)phenyl)acetamide]: above 100 µM; for `CC(NC(=O)c1cc2cn[nH]c2cn1)C1CCN(C(=O)[C@H](C)N)CC1` (stereo partly drawn) [compound 496, N-(1-(1-(L-alanyl)piperidin-4-yl)ethyl)-1H-pyrazolo[3,4-c]pyridine-5-carboxamide]: 6.57 µM. The same measure, in the same setting: under `NCCC(=O)N[C@H]1CC[C@H](NC(=O)c2c[nH]c3ccccc23)CC1` [compound 391, N-((1r,4r)-4-(3-aminopropanamido)cyclohexyl)-1H-indole-3-carboxamide] stands above 100 µM. For the compound `CC(NC(=O)c1cccc2c1OC(F)(F)O2)C1CCN(C(=O)[C@H](C)N)CC1` (stereo partly drawn) [compound 266, N-(1-(1-(L-alanyl)piperidin-4-yl)ethyl)-2,2-difluorobenzo[d][1,3]dioxole-4-carboxamide], the IC50 is above 100 µM.

Still in this test, the particulars now being: read-out: SMYD3 Biochem IC50 (μM)*.
On to `CC(NC(=O)Cc1c[nH]c2ccccc12)C1CCN(C(=O)[C@H](C)N)CC1` (stereo partly drawn) [compound 167, N-(1-(1-(L-alanyl)piperidin-4-yl)ethyl)-2-(1H-indol-3-yl)acetamide], for which the concentration for half-maximal inhibition (IC50) was above 100 µM.

On to `Nc1nccnc1C(=O)N[C@H]1CC[C@H](N)CC1` [compound 153, 3-amino-N-((1r,4r)-4-aminocyclohexyl)pyrazine-2-carboxamide], for which the IC50 was above 100 µM.

Regarding `CC(NC(=O)c1ccc2c(c1)CC(=O)N2)C1CCN(C(=O)[C@H](C)N)CC1` (stereo partly drawn) [Cpd. No. 86, N-(1-(1-((S)-2-aminopropanoyl)piperidin-4-yl)ethyl)-2-oxoindoline-5-carboxamide Hydrochloride], the IC50 came to 1.43 µM.

In the case of `N[C@H]1CC[C@H](NC(=O)c2ccc3c(c2)NC(=O)CO3)CC1` [compound 20, N-((1r,4r)-4-aminocyclohexyl)-3-oxo-3,4-dihydro-2H-benzo[b][1,4]oxazine-6-carboxamide], the IC50 came out at 16 µM. On the same count and under the same terms, under `CCc1ncc(C(=O)Nc2ccc(CN)cc2)s1` [compound 61, N-(4-(aminomethyl)phenyl)-2-ethylthiazole-5-carboxamide] stands 114 µM. Same read-out and setting: the same measure for `N[C@H]1CC[C@H](NC(=O)Cc2c[nH]c3ccccc23)CC1` [compound 168, N-((1r,4r)-4-aminocyclohexyl)-2-(1H-indol-3-yl)acetamide]: above 100 µM. Still for that read-out and setting: the same measure for `N[C@H]1CC[C@H](NC(=O)c2ccc3c(c2)NC(=O)C3)CC1` [compound 71, N-((1r,4r)-4-aminocyclohexyl)-2-oxoindoline-6-carboxamide]: 89.3 µM.

Regarding `CC(NC(=O)c1nccc2ccccc12)C1CCN(C(=O)[C@H](C)N)CC1` (stereo partly drawn) [compound 171, N-(1-(1-(L-alanyl)piperidin-4-yl)ethyl)isoquinoline-1-carboxamide], the IC50 is above 100 µM.

What is called IC50 is the point on the concentration scale where inhibition reaches its midpoint.
